Experimental data published in patent US9498480B2 (Bayer Intellectual Property GmbH, priority 2012, dated 2016).

Test system: recombinant guanylate cyclase reporter cell line
Assay: Effect on a recombinant guanylate cyclase reporter cell line
Format: cell-based
Settings: representative values, read-out: MEC (minimum effective concentration)
Experimental: B-2. Effect on a Recombinant Guanylate Cyclase Reporter Cell Line
The cellular activity of the compounds according to the invention is determined using a recombinant guanylate cyclase reporter cell line, as described in F. Wunder et al., Anal. Biochem. 339, 104-112 (2005).

SMILES | minimal effective concentration [µM]
CCN(CC)c1n[nH]c2nc(-c3nn(CCC(F)(F)C(F)(F)F)c4ncc(F)cc34)nc(N)c12 [Example 9] | 0.03
O=c1[nH]c2nc(-c3nn(Cc4ccccc4F)c4ncc(F)cc34)nc(NCC3CC3)c2n1CC(F)(F)F [Example 5, 6-[(Cyclopropylmethyl)amino]-2-[5-fluoro-1-(2-fluorobenzyl)-1H-pyrazolo[3,4-b]pyridin-3-yl]-7-(2,2,2-trifluoroethyl)-7,9-dihydro-8H-purin-8-one] | 0.3
Cc1n[nH]c2nc(-c3nc(Cc4ccccc4F)n4ncccc34)nc(N)c12 [Example 7, 6-[7-(2-Fluorobenzyl)imidazo[1,5-b]pyridazin-5-yl]-3-methyl-1H-pyrazolo[3,4-d]pyrimidine-4-amine] | 0.01
Cc1n[nH]c2nc(-c3nn(Cc4ncccc4F)c4ncc(F)cc34)nc(N)c12 [Example 1, 6-{5-Fluoro-1-[(3-fluoropyridin-2-yl)methyl]-1H-pyrazolo[3,4-b]pyridin-3-yl}-3-methyl-1H-pyrazolo[3,4-d]pyrimidine-4-amine] | 0.3
CCN(CC)c1n[nH]c2nc(-c3nn(Cc4ncccc4F)c4ncc(F)cc34)nc(N)c12 [Example 2, N^3,N^3-Diethyl-6-{5-fluoro-1-[(3-fluoropyridin-2-yl)methyl]-1H-pyrazolo[3,4-b]pyridin-3-yl}-1H-pyrazolo[3,4-d]pyrimidine-3,4-diamine] | 0.1
Nc1nc(-c2nn(Cc3ncccc3F)c3ncc(F)cc23)nc2ncccc12 [Example 3, 2-{5-Fluoro-1-[(3-fluoropyridin-2-yl)methyl]-1H-pyrazolo[3,4-b]pyridin-3-yl}pyrido[2,3-d]pyrimidine-4-amine] | 10
Nc1nc(-c2nn(CCC(F)(F)C(F)(F)F)c3ncc(F)cc23)nc2ncccc12 [Example 10, 2-[5-Fluoro-1-(3,3,4,4,4-pentafluorobutyl)-1H-pyrazolo[3,4-b]pyridin-3-yl]pyrido[2,3-d]pyrimidine-4-amine] | 0.3
COc1n[nH]c2nc(-c3nn(Cc4ncccc4F)c4ncc(F)cc34)nc(N)c12 [Example 4, 6-{5-Fluoro-1-[(3-fluoropyridin-2-yl)methyl]-1H-pyrazolo[3,4-b]pyridin-3-yl}-3-methoxy-1H-pyrazolo[3,4-d]pyrimidine-4-amine] | 0.3
Cc1n[nH]c2nc(-c3nn(CCC(F)(F)C(F)(F)F)c4ncc(F)cc34)nc(N)c12 [Example 8, 6-[5-Fluoro-1-(3,3,4,4,4-pentafluorobutyl)-1H-pyrazolo[3,4-b]pyridin-3-yl]-3-methyl-1H-pyrazolo[3,4-d]pyrimidine-4-amine] | 0.1
